Results from US8889638B2, “Stimulus-triggered prodrugs” (The Regents of the University of California, priority 2010, dated 2014).

What was measured:
[1] = Acid stability in 0.1 M HCl (absorption spectra); type: physicochemical; settings: 0.1 M HCl over 24 h
Procedure: To examine the stability of compound 8 towards acid hydrolysis, the absorption spectra of a 0.05 mM solution of 8 in a 0.1 M aqueous solution of HCl was collected. Spectra were collected at room temperature every hour for a 24 h time period. No change in the spectra was observed (FIG. 11).

[2] = target: T1, MMP-9 (catalytic domain, human, recombinant) (Homo sapiens, UniProt P14780); experiment: MMP-9 fluorescence-based inhibition assay with and without β-glucosidase; type: biochemical
T1 construct: MMP-9 (catalytic domain, human, recombinant); purchased BIOMOL International
Procedure: (§1) MMP-9 (catalytic domain, human, recombinant), MMP-8 (catalytic domain, human, recombinant), and the assay kit were purchased from BIOMOL International. The assays were carried out according to the procedure provided with the kit. MMP activity was measured in 96-well plates using a Bio-Tek Flx 800 fluorescent plate reader. The ZBGs and their protected analogs were dissolved in DMSO and diluted in HEPES buffer (50 mM, pH 7.5) to a concentration of 10 mM for 1-2, 40 mM for 3-4, and 1.25 mM for 5-6. Each well contained 20 μL, of MMP-9 (0.45 U/mL), inhibitor (10 μL, of 1-6), 5 μL, of β-glucosidase (1 U/μL) when used, and buffer for a total volume of 99 μL. These were incubated for 1 h at 37° C. […] The reaction was initiated by the addition of 1 μL (400 μM) of the fluorescent substrate (Mca-Pro-Leu-Gly-Leu-Dpa-Ala-Arg-NH2 where Mca=(7-methoxycoumarin-4-yl)-acetyl and Dpa=N-3-(2,4-dinitrophenyl)-L-α-β-diaminopropionyl)) and kinetic activity was measured every minute for 30 min with excitation and emission wavelengths at 335 nm and 405 nm, respectively. Enzyme activity with inhibitor was calculated with respect to the control experiment (no inhibitor present). Measurements were performed in duplicate in two independent experiments.
For Cmpds 7 and 8, 1 mL sample in HEPES buffer at a concentration of 1 mM was incubated at 37° C. with 250 U of β-glucosidase (1 U/μL) for 4 h giving a final concentration of 0.8 mM of the inhibitor. After 4 h, a 200 μL aliquot was collected and filtered through a microcentrifuge filter. UV-Vis absorption spectroscopy was to verify that the concentration of 1,2-HOPO-2 was 0.71±0.2 mM in each of the samples using the extinction coefficient for 1,2-HOPO-2 (7) calculated at 346 nm (4,279.3±372 M-1 cm-1). Each well was made up with 20 μL of MMP-9 (0.45 U/mL), inhibitor (2 μL, for 7 and 8), and buffer for a total volume of 99 μL. These were incubated for 30 min at 37° C. For MMP-8 inhibition assays, each of the samples was diluted to 1 μM in HEPES buffer and 15 μL of each were added to 20 μL of MMP-8 (0.092 U/mL) and buffer for a total of 99 μL. The reaction was initiated by the addition of 1 μL (400 μM) of the fluorescent substrate and kinetic activity was measured every minute for 30 min with excitation and emission wavelengths at 335 nm and 405 nm, respectively. Enzyme activity with inhibitor was calculated with respect to the control experiment (no inhibitor present). A control sample was also performed, in which an aliquot of 250 U of β-glucosidase (1 U/μL) with 1 mL of HEPES buffer was incubated for 4 h at 37° C., filtered through a microcentrifuge filter, and evaluated in the MMP assay to confirm that no inhibition is observed with β-glucosidase. Measurements were performed in duplicate in two independent experiments. […]

[3] = target: T2, MMP-8 (catalytic domain, human, recombinant) (Homo sapiens, UniProt P22894); experiment: MMP-8 fluorescence-based inhibition assay with and without β-glucosidase; type: biochemical
T2 construct: MMP-8 (catalytic domain, human, recombinant); purchased BIOMOL International
Procedure: as §1, with “Measurements were performed in duplicate in two independent experiments.” left out
IC50 values were obtained for compounds 1-8 against MMP-9 and for compounds 7 and 8 against MMP-8. […] Enzyme activity with inhibitor was calculated with respect to the control experiment (no inhibitor present). […]

T1 sequence (P14780 107-444 limits assumed): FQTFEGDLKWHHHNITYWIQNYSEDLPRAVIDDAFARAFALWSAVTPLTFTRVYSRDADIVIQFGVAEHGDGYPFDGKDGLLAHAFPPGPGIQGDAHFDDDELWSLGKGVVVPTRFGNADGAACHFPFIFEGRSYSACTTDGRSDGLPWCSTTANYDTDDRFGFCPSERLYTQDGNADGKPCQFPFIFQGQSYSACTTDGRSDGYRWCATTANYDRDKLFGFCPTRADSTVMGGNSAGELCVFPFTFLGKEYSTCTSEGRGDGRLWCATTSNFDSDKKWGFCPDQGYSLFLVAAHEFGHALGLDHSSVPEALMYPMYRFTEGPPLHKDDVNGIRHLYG
T2 sequence (P22894 100-262 limits assumed): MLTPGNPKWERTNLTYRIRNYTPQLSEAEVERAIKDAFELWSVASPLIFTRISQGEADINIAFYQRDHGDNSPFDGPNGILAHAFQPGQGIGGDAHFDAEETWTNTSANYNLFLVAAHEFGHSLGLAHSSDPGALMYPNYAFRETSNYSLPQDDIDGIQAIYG

cleavage under acidic conditions [1]: not cleaved
inhibition at 16 µM ([2]; 16 μM, read-out: MMP-9 activity inhibited upon activation with β-glucosidase): 73%
inhibition of MMP-9 in the absence of β-glucosidase ([2]; 1 mM for 2, 4 mM for 4, 125 μM for 6, 16 μM for 8): very little inhibition
inhibition at 0.15 µM ([3]; 150 nM, read-out: inhibition of MMP-8 after activation with β-glucosidase): 33%
increase in activity upon enzymatic activation ([3]; MMP-8, with vs without β-glucosidase): > 1000 fold
Structure (SMILES): O=C(NCc1ccc(-c2ccccc2)cc1)c1cccc(=O)n1O[C@@H]1O[C@H](CO)[C@@H](O)[C@H](O)[C@H]1O [Compound 8, N-(Biphenyl-4-ylmethyl)-6-oxo-1-(β-D-glucopyranosyloxy)-1,6-dihydropyridine-2-carboxamide]
